From patent publication US12115178B2, “Acylated active agents and methods of their use for the treatment of autoimmune disorders” (Flagship Pioneering Innovations V, Inc., priority 2018, dated 2024)

Assays:
naïve CD4+ T cells = experiment: Human regulatory T cell differentiation assay; assay type: cell-based; details: 6 days
Protocol: Peripheral blood mononuclear cells (PBMCs) from whole blood donated by health volunteers were separated by Ficoll-Paque gradient centrifugation and naïve CD4^+ T cells were subsequently isolated using magnet beads (EasySep™ Human Naïve CD4^+ T Cell Isolation Kit, Cambridge, MA). For regulatory T cell (Treg) differentiation assay, naïve CD4^+ T cells were cultured (1-10×10^4 cells) in CTS OpTmizer medium for 6 days and stimulated with 5 ng/ml TGF-β, 100 U/ml IL-2, and ImmunoCult™ Human […] T Cell Activator; Stemcell #10990) with/without our Compounds. Cell viability was determined using a viability dye (eBioscience Fixable Viability Dye eFluor 780: ThermoFisher 65-0865-14) at 1:500 dilution. The cells were gated for Treg, defined as Live, CD11c^−, CD14^−, CD19^−, CD8^−, CD4^+, CD3^+, CD25^+, FOXP3^+. Percent (%) Tregs were calculated as percentage of CD4^+, CD25^+, FOXP3^+ cells over total CD4 T cells. Statistical analysis was performed with GraphPad Prism Software Using One-Way ANOVA.

[1] = Assay 2. Stability in Simulated Intestinal Fluid (SIF); assay type: in vitro ADME; details: SIF pH 6.7 with pancreatin, 1 μM, 37° C.
How it was run: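 Degradation rates came from LC/MS of acetonitrile-quenched samples drawn at intervals, starting at T0. The medium was freshly made pH 6.7 FaSSIF containing pancreatin, and test compound was present at 1 µM while being shaken at 37 °C.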

[2] = system: type II collagen arthritis; experiment: In vivo rheumatoid arthritis model (semi-established type II collagen arthritis); parameters: species or system Lewis rats; details: for Mean Ankle Diameter AUC (mm*day) / Mean Ankle Periosteal Bone width (um) / Mean Knee Inflammation score (0-5) / Mean Terminal hind paw weights / Mean body weight change, day −1 to 21 (%) / Relative Spleen to Body Weight (Mean) / Mean Ankle Bone Resorption score (0-5) / Mean Ankle Cartilage Damage score (0-5) / Mean Ankle Pannus score (0-5) / Mean Ankle Periosteal Bone score (0-5) / Mean Ankle inflammation score (0-5) / Mean Knee Bone Resorption score (0-5) / Mean Knee Cartilage Damage score (0-5) / Mean Knee Pannus score (0-5) / Serum IgG: rats; for Mean Ankle Bone Resorption score (0-5) / Mean Ankle Cartilage Damage score (0-5) / Mean Ankle Pannus score (0-5) / Mean Ankle Periosteal Bone score (0-5) / Mean Ankle inflammation score (0-5) / Mean Knee Bone Resorption score (0-5) / Mean Knee Cartilage Damage score (0-5) / Mean Knee Pannus score (0-5): 0 = normal, 5 = severe; for Serum IgG: terminal serum ELISA for anti-type II collagen antibodies
Protocol: A study was conducted to determine the efficacy of test articles dosed by the oral (PO) route for inhibition of the inflammation (paw swelling), cartilage destruction, and bone resorption that occurs in semi-established type II collagen arthritis in female Lewis rats. Rats (10 per group) were injected intradermally (ID) with porcine type II collagen to induce arthritis; one group of rats (4 per group) served as vehicle-treated naïve controls. […] Positive controls were treated PO, BID with the reference compound Tofacitinib citrate (10 mg/kg). The rats were euthanized for necropsy on study day 21 (animals #1-5 in each group, animals #1-2 in naïve group) or 22 (animals #6-10 in each group, animals #3-4 in naïve group). Efficacy evaluation was based on animal body weights (Table 9), daily ankle caliper measurements (FIG. 4), ankle diameter expressed as area under the curve (AUC) (Table 10), terminal hind paw weights (Table 11), histopathologic evaluation of hind paws (Ankle Inflammation score: Table 12, Ankle Pannus score: Table 13, Ankle Cartilage Damage score: Table 14, Ankle Bone Resorption score: Table 15, Ankle Periosteal Bone score: Table 16, Ankle Periosteal Bone Width: Table 17) and knees (Knee Inflammation score: Table 18, Knee Pannus score: Table 19, Knee Cartilage Damage score: Table 20, Knee Bone Resorption score: Table 21), and relative spleen to body weight ratio (Table 22). Terminal serum was analyzed by enzyme-linked immunosorbent assay (ELISA) for anti-type II collagen antibodies (IgG) (Table 23). […] Statistics were conducted using ordinary one-way ANOVA with Dunnett's multiple comparison correction in GraphPad Prism.

[3] = Assay 3. In vitro Colonic Material Stability Assay; assay type: in vitro ADME; details: colonic material slurry, anaerobic, 1 or 10 μM
neutrophil = experiment: Neutrophil chemokine production assay; assay type: cell-based, human; details: 12 h
Protocol: A volume 25 mL of human blood was layered over 15 mL of Histopaque®-1077 and centrifuged at 500 g, RT, for 30 min with no break applied to the centrifuge. The PBMC band and Histopaque®-1077 layer were removed leaving behind the bottom red layer which was mixed with 40 mL of 1× red blood cell (RBC) lysis buffer (Sigma-Aldrich) was and split into two 50 mL tubes. The volume for both fractions was brought to 50 mL with RBC lysis buffer, mixed by inversion, and then incubated at RT for 10 min. Solutions were centrifuged at 250 g, for 10 min at RT and the supernatant liquids removed. The reddish pellets were re-suspended in 1 mL of RBC lysis buffer and combined. The cell suspension was incubated for 5 min at RT in RBC lysis buffer. After incubation 45 mL of Hanks Balanced Salt Solution with no calcium, magnesium or phenol red (HBSS−) was added, the cell suspension was spun (250 g for 10 min at RT), and supernatant liquids were removed. The white pellet was re-suspended in 1 mL of HBSS−, and cell counts were determined. The neutrophil cell suspension was brought to a concentration of 1.11e6 cells/mL in RPMI complete (Sigma-Aldrich), and 180 μL of cell suspension was transferred to all wells within a sterile 96-well tissue culture treated plate resulting in 2.0e5 cells/well. […] After incubation, 10 μL of 2 μg/mL LPS solution in RPMI complete was added to each well except for control wells, which received an additional 10 μL of media. Cells were incubated for 12 h (37° C., 5% CO2), after which plates were centrifuged at 250 g, RT, for 5 min and supernatant liquids were obtained and stored at −80° C. until analyzed via Luminex® Multiplex Assay for various chemokines and cytokines. Three data points were acquired from two different blood donors and averaged.

SMILES | Assay 2 (SIF) (% @ Remaining 4 hours) [1] | Mean Ankle Diameter AUC (mm*day) ([2]; 500 mg/kg PO BID) | Mean Ankle Periosteal Bone width (um) ([2]; 500 mg/kg PO BID) | Mean Knee Inflammation score (0-5) ([2]; 500 mg/kg PO BID) | Mean Terminal hind paw weights ([2]; 500 mg/kg PO BID) | Mean body weight change, day −1 to 21 (%) ([2]; 500 mg/kg PO BID) | Relative Spleen to Body Weight (Mean) ([2]; 500 mg/kg PO BID) | Mean Ankle Bone Resorption score (0-5) ([2]; 500 mg/kg PO BID) | Mean Ankle Cartilage Damage score (0-5) ([2]; 500 mg/kg PO BID) | Mean Ankle Pannus score (0-5) ([2]; 500 mg/kg PO BID) | Mean Ankle Periosteal Bone score (0-5) ([2]; 500 mg/kg PO BID) | Mean Ankle inflammation score (0-5) ([2]; 500 mg/kg PO BID) | Mean Knee Bone Resorption score (0-5) ([2]; 500 mg/kg PO BID) | Mean Knee Cartilage Damage score (0-5) ([2]; 500 mg/kg PO BID) | Mean Knee Pannus score (0-5) ([2]; 500 mg/kg PO BID) | Serum IgG ([2]; 500 mg/kg PO BID) | other results
CC(O)CC(=O)[O-].[Na+] (centres unmarked) [Sodium BHB] | – | – | – | – | – | – | – | – | – | – | – | – | – | – | – | – | Cell viability % DMSO (naïve CD4+ T cells; 2 mM): = (90%> <110%: =); Treg induction % DMSO (naïve CD4+ T cells; 2 mM): + (110%> <130%: +); Cell viability % DMSO (naïve CD4+ T cells; 20 mM): − (<90%: −); Treg induction % DMSO (naïve CD4+ T cells; 20 mM): = (90%> <110%: =)
CCCC(=O)Oc1cc(OC(=O)CCC)c2c(=O)c(OC(=O)CCC)c(-c3ccc(OC(=O)CCC)c(OC(=O)CCC)c3)oc2c1 [Compound 5, [2-butanoyloxy-4-[3,5,7-tri(butanoyloxy)-4-oxo-chromen-2-yl]phenyl]butanoate] | B (25-75% of the tested compound remaining) | 93.57 mm*day | 699.30 um | 5.65 | 2.3994 g | −10.1% | 0.2534 | 3.33 | 4.45 | 3.33 | 3.70 | 2.3994 | 2.65 | 4.00 | 2.65 | 5350.41 µg/mL | Mean Ankle Diameter AUC (mm*day) ([2]; 100 mg/kg PO BID): 89.38 mm*day; Mean Ankle Periosteal Bone width (um) ([2]; 100 mg/kg PO BID): 510.30 um; Mean Knee Inflammation score (0-5) ([2]; 100 mg/kg PO BID): 5.23; Mean Terminal hind paw weights ([2]; 100 mg/kg PO BID): 2.3990 g; Mean body weight change, day −1 to 21 (%) ([2]; 100 mg/kg PO BID): −7.1%; Relative Spleen to Body Weight (Mean) ([2]; 100 mg/kg PO BID): 0.2453; Mean Ankle Bone Resorption score (0-5) ([2]; 100 mg/kg PO BID): 2.53; Mean Ankle Cartilage Damage score (0-5) ([2]; 100 mg/kg PO BID): 3.55; Mean Ankle Pannus score (0-5) ([2]; 100 mg/kg PO BID): 2.53; Mean Ankle Periosteal Bone score (0-5) ([2]; 100 mg/kg PO BID): 2.68; Mean Ankle inflammation score (0-5) ([2]; 100 mg/kg PO BID): 2.3990; Mean Knee Bone Resorption score (0-5) ([2]; 100 mg/kg PO BID): 2.08; Mean Knee Cartilage Damage score (0-5) ([2]; 100 mg/kg PO BID): 2.93; Mean Knee Pannus score (0-5) ([2]; 100 mg/kg PO BID): 2.08; Serum IgG ([2]; 100 mg/kg PO BID): 5937.67 µg/mL; effects on spleen weights relative to body weight, ankle diameter AUC, ankle pannus score, ankle bone resorption score, and ankle periosteal bone score ([2]; rat collagen arthritis, PO BID): significant beneficial effects
CN(CCOc1ccc(CC2SC(=O)NC2=O)cc1)c1ccccn1 (centres unmarked) [Rosiglitazone, rosiglitazone] | – | – | – | – | – | – | – | – | – | – | – | – | – | – | – | – | Cell viability % DMSO (naïve CD4+ T cells; 10 uM): = (90%> <110%: =); Cell viability % DMSO (naïve CD4+ T cells; 100 uM): − (<90%: −)
CCCC(=O)Oc1cc(C(=O)O)cc(OC(=O)CCC)c1OC(=O)CCC [Compound 45, 3,4,5-tris(butyryloxy)benzoic acid] | A (<25% of the tested compound remaining) | 94.20 mm*day | 630.00 um | 5.25 | 2.3988 g | −6.3% | 0.2534 | 3.48 | 4.20 | 3.48 | 3.38 | 2.3988 | 2.40 | 3.63 | 2.48 | 5431.64 µg/mL | Assay 3 (% Remaining at 24 h) [3]: A (<25% of the tested compound remaining)
CCC(=O)O [Propionic acid] | – | – | – | – | – | – | – | – | – | – | – | – | – | – | – | – | Cell viability % DMSO (naïve CD4+ T cells; 3 mM): = (90%> <110%: =)
CCCC(=O)O [butyrate] | – | – | – | – | – | – | – | – | – | – | – | – | – | – | – | – | % IL-8 (Vehicle + LPS = 100%) (neutrophil; 500.0 μM): ++ (++ = <70%Vehicle); % MIP-1α (Vehicle + LPS = 100%) (neutrophil; 500.0 μM): +++ (+++ = <50% Vehicle); % MIP-1β (DMSO + LPS = 100%) (neutrophil; 500.0 μM): +++ (+++ = <50% Vehicle); % IL-8 (Vehicle + LPS = 100%) (neutrophil; 1000.0 μM): ++ (++ = <70%Vehicle); % MIP-1α (Vehicle + LPS = 100%) (neutrophil; 1000.0 μM): +++ (+++ = <50% Vehicle); % MIP-1β (DMSO + LPS = 100%) (neutrophil; 1000.0 μM): +++ (+++ = <50% Vehicle)
